In data set [1] the test system is volunteers suffering from dry eye. The experiment in a line: Ophthalmic eyedrops in volunteers suffering from dry eye. The data set is classed as in vivo, human. The procedure:
Two ophthalmic preparations were compared: a conventional one based on hyaluronic acid and one based on chondroitin, both at the concentration of 3% w/v in NaCl saline solution at pH 7.4. The eyedrops were prepared in single-dose packaging sterilised in the autoclave. […] The volunteers, of both sexes, aged between 45 and 60 years, were randomised into two groups of 15, and treated with the two types of eyedrops. Under medical control the inflammatory state of the corneal surface was evaluated at the beginning and end of the treatment, and the evaluations of the treated patients relating to tolerability, duration of the wetting effect, and visual alteration after application, were recorded. A scale of 1 to 5 was used for the clinical evaluations and the patients' evaluations, where 5 represents optimum resolution of the pathological condition and its sequelae. […]

In data set [2] the test system is volunteers suffering from severe impairment of the knee joint. The experiment in a line: Viscosupplementation and cartilage repair in volunteers with knee joint impairment. The data set is classed as in vivo, human. The procedure:
The aim of the study was to evaluate the therapeutic potential of the hyaluronic acid-chondroitin combination (HA-C) in joint disease associated with damage to the cartilaginous component of the joint. The study was conducted on 30 volunteers suffering from severe impairment of the knee joint, with damage to the cartilaginous component, evident ongoing inflammatory symptoms, swelling and pain. The volunteers, aged between 25 and 45 years, of both sexes, were randomised into three groups of 10; the control group was treated with saline, the HA group with hyaluronic acid and the HA-C group with a mixture of hyaluronic acid and chondroitin. The viscosupplementation treatment was performed 3 times at 2-month intervals by injecting into the joint 2 mL of a sterile, pyrogen-free solution consisting of a saline solution (0.9% NaCl) for the control group, a 20 mg/mL solution of hyaluronic acid 1,200 KDa for the HA group and a 20 mg/mL solution of hyaluronic acid 1,200 KDa+20 mg/mL of chondroitin for the HA-C group. Before and at the end of the 6-month study the volunteers underwent an X-ray and MRI scan of the joint. Three orthopaedic surgeons independently evaluated the development of the pathological symptoms (pain, inflammatory state and swelling), and repair of cartilage damage, over time (before treatment, and after 3 and 6 months), on a scale of 1 to 5 (where 1 represents absence of healing, and 5 indicates total remission of the pathological symptoms and complete repair of the damage to the cartilage tissue).

Data set [3] relates to HT-1376 cells. The experiment in a line: Flow cytometry of apoptotic and necrotic cells (Annexin V-FITC/PI). Format: cell-based, human. More on the design: unit not given here. The conditions noted are these: 48 h, alone or combined. The procedure:
Flow cytometry was used to evaluate the quantity of apoptotic or necrotic cells. Fluorescein isothiocyanate (Annexin V-FITC) combined with propidium iodide (PI) was used as marker; the apoptotic cells were Annexin V-FITC positive and PI negative, and the necrotic cells were Annexin V-FITC positive and PI positive. The cells were labelled by incubating them with Annexin V-FITC (Diagnostics MedSystems) and PI (Sigma) in a binding buffer (10 mM HEPES, pH 7.4, 150 mM NaCl, 5 mM KCl, 1 mM MgCl2, 2.5 mM CaCl2) for 10 min at ambient temperature, and then washing and resuspending the cell material in the same buffer. The apoptotic and necrotic cells were analysed by flow cytometry (FACScan, Becton-Dickinson), acquiring an average of 2×10^4 events per sample, with determinations in triplicate on three separate experiments.

Data set [4] deals with human bladder carcinoma cell line HT-1376. Description: Inhibition of growth of bladder cancer cells and polysaccharide-antitumoral synergism. The data set is classed as cell-based. The conditions noted are these: HT-1376, after 72 h, product taken individually.
Description: Human bladder cancer cell lines HT-1376 were used as system model, evaluating the ability of different combinations of GEM or MCC and C or CS to inhibit growth.
Human bladder carcinoma cell line HT-1376 (American Type Tissue Cultures Collection, Rockville, Md.) was cultured in DMEM supplemented with heat inactivated 10% foetal bovine serum (FBS), 20 mM 4,2-hydroxyethyl-1-piperazinyl-ethanesulphonic acid (HEPES), 100 U/mL penicillin, 100 µg/mL streptomycin, 1% w/v sodium L-glutamine and 1% w/v pyruvate. The cells were cultured in a humidified atmosphere comprising 95% air/5% CO2 at 37° C. For the study of synergism between C or CS and MMC or GEM in inhibiting the growth of HT-1376, the cells were seeded in 96-well plates at a density of 6*10^3 cells/well. After 24 hours' incubation at 37° C. the cells were treated with different concentrations of C or CS or GEM or MMC, and polysaccharide-antitumoral combinations thereof. The evaluation of polysaccharide-antitumoral synergism was based on analysis after 72 hours' treatment of the fraction curves of the surviving cells versus the concentration of antitumoral, conducted with the Calcusyn computer program (Biosoft, Ferguson, Mo.). The combination index values (CI) of <1, 1 and >1 indicate synergy, additivity and antagonism respectively in the polysaccharide-antitumoral interaction.
For data set [5], the system named is GRP78. The experiment in a line: Western blotting protein expression of GRP78 in IL-1β-treated human chondrocytes. As to conditions: densitometric analysis of Western blotting versus tubulin; control = 1. The data set is classed as cell-based. The procedure:
(§1) In a standard experiment, 10^4 cells were seeded per well of a 24-well multiwell plate, and after 5 days, when confluency was reached, the cells were starved for 24 hours (incubation in DMEM with 0.5% FBS). The cells were then treated for 2 h with 1% w/v of chondroitin (C) or chondroitin sulphate (CS) (endotoxin content ≤0.1 EU/mg), in DMEM without FBS; the control was maintained under the same conditions, but without the addition of C or CS. IL-1 β at the concentration of 10 ng/mL was then added to the cultures. After 24 h hours' incubation the cells were recovered and the RNA was extracted from them with Trizol Reagent, as described in the kit manual (Life Technologies Ltd, Milan Italy). The gene expression values are confirmed by the protein expression data obtained in Western blotting by densitometric analysis of the GRP78 protein bands and SOD2 compared with the constitutive tubulin gene (Table 6)
For orientation: A western blot detects proteins with antibodies after separation by electrophoresis.

In data set [6] the test system is SOD-2. Description: Real-Time PCR gene expression of SOD-2 in IL-1β-treated human chondrocytes. The data set is classed as cell-based. As to conditions: 2 h pre-treatment 1% w/v, IL-1β 10 ng/mL 24 h; untreated cells taken as 1.
Source text: The objective of the study was to evaluate the effects of chondroitin or chondroitin sulphate on gene expression of GRP78 and SOD-2 in human chondrocytes, after treatment with the pro-inflammatory cytokine IL-1β.
Human chondrocytes extracted from nasal cartilage treated with IL-1β, a pro-inflammatory cytokine which acts as mediator in the activation of the biological mechanisms underlying the onset of OA, were used in the study. In particular, the modulation of two markers involved in the manifestation of the inflammatory state, chaperonin GRP78 and the enzyme superoxide dismutase (SOD-2), was evaluated.
as §1, with “The gene expression values are confirmed by the protein expression data obtained in Western blotting by densitometric analysis of the GRP78 protein bands and SOD2 compared with the constitutive tubulin gene (Table 6)” left out
A general note: Real-time PCR tracks product formation cycle by cycle.

Data set [7] has as its system SOD-2. Description: Western blotting protein expression of SOD-2 in IL-1β-treated human chondrocytes. The data set is classed as cell-based. The conditions noted are these: densitometric analysis of Western blotting versus tubulin; control = 1. As for the experimental part:
as §1

Setting [8] is: 0.04 μg/mL of C or CS and 0.15 μg/mL of GEM.
[9] abbreviates: 5.7 μg/mL of C or CS and 1.7 μg/mL of MMC.

Turning to “hyaluronic acid [HA, reference compound]”, the “Doctor: corneal inflammation” value in data set [1] (0 days, 3% w/v eyedrops, scale of 1 to 5, 5 optimum) is recorded as 1.0 ± 0.1; in data set [1] (30 days, 3% w/v eyedrops 4 times a day, scale of 1 to 5), 3.5 ± 0.2. For the same compound, the “Patient: absence of visual alteration” value in data set [1] (10 days, scale of 1 to 5) was determined as 3.5 ± 0.2; in data set [1] (20 days, scale of 1 to 5) it was 3.2 ± 0.1; in data set [1] (30 days, scale of 1 to 5), 3.6 ± 0.2. The “Patient: tolerability” value is recorded as 3.8 ± 0.2 in data set [1] (10 days, scale of 1 to 5); 3.7 ± 0.3 in data set [1] (20 days, scale of 1 to 5); 3.9 ± 0.3 in data set [1] (30 days, scale of 1 to 5). Moreover, the “Patient: wetting effect” value in data set [1] (10 days, scale of 1 to 5) was 4.0 ± 0.2; in data set [1] (20 days, scale of 1 to 5) it was 4.1 ± 0.3; in data set [1] (30 days, scale of 1 to 5), 4.4 ± 0.3. Besides, the Cartilage repair in data set [2] (0 months, scale of 1 to 5) is on record as 1.0 ± 0.1; in data set [2] (3 months, scale of 1 to 5), 1.5 ± 0.2. The Inflammation in data set [2] (0 months, scale of 1 to 5) came to 1.3 ± 0.2; in data set [2] (3 months, scale of 1 to 5) it was 3.1 ± 0.2; in data set [2] (6 months, scale of 1 to 5), 4.1 ± 0.5. The Swelling in data set [2] (0 months, scale of 1 to 5) came to 1.2 ± 0.1; in data set [2] (3 months, scale of 1 to 5) it was 3.1 ± 0.3. The Pain stood at 1.6 ± 0.2 in data set [2] (0 months, scale of 1 to 5, 5 total remission); 3.1 ± 0.4 in data set [2] (3 months, scale of 1 to 5); 4.0 ± 0.3 in data set [2] (6 months, scale of 1 to 5).

As to `Nc1ccn([C@@H]2O[C@H](CO)[C@@H](O)C2(F)F)c(=O)n1` [GEM, gemcitabine], in data set [3] (setting [8]), the “Cell state: apoptotic advanced” value is given as 2 ± 1, the “Cell state: apoptotic early” value is recorded as 1 ± 1, the “Cell state: necrotic” value worked out at 16 ± 3 and the “Cell state: viable” value is recorded as 81 ± 3. Besides, in data set [4] (Homo sapiens, read-out: IC50 (50% inhibition of growth)), the IC50 was determined as 0.5 µg/mL.

As for “IL-1β: pro-inflammatory cytokine, 10 ng/mL, positive control”, the “Protein expression value of GRP78” value in data set [5] was determined as 1.15 ± 0.15. Moreover, the “gene expression of SOD-2” value in data set [6] was determined as 22 ± 4. In addition, the “Protein expression value of SOD-2” value in data set [7] turned out to be 1.96 ± 0.20.

Consider `CO[C@@]12[C@H](COC(N)=O)C3=C(C(=O)C(C)=C(N)C3=O)N1C[C@@H]1N[C@@H]12` [MMC, mitomycin-C], for which, in data set [3] (setting [9]), the “Cell state: apoptotic advanced” value was found to be 2 ± 1, the “Cell state: apoptotic early” value turned out to be 1 ± 1, the “Cell state: necrotic” value is 33 ± 1 and the “Cell state: viable” value came out at 64 ± 5. Also, the “IC50 (50% inhibition of growth)” value in data set [4] was 18 μ/mL.

The IC50 is the concentration that gives 50% inhibition.

The values above are taken from patent US10206944B2, “Chondroitin for use in medicine” (ALTERGON S.A., priority 2012, dated 2019).
